Laboratory results published in patent publication US7595340B2, “Serotonin and norepinephrine reuptake inhibitor and uses thereof” (Wyeth, priority 2005, dated 2009).
Converted amounts (≈) assume the structure as drawn.

Assays:
[1] = target: human serotonin transporter (Homo sapiens, UniProt P31645); experiment: human serotonin transporter assay (in-house); assay type: binding; conditions: initial experiments, in-house assays
Text: In initial experiments using in-house assays, 4-[2-dimethylamino-1-(4-hydroxy-phenyl)-ethyl]-tetrahydro-pyran-4-ol has been found active in a human serotonin transporter assay.

[2] = Solution stability in aqueous solutions; assay type: physicochemical; conditions: room temperature, all aqueous solutions (pH 1.25-8.8)
Hygroscopicity profile = assay type: physicochemical
Text: FIG. 2 provides a chart of the hygroscopicity profile of 4-[2-dimethylamino-1-(4-phenyl)-ethyl-tetrahydro-pyran-4-ol.

pH-solubility profile = assay type: physicochemical; conditions: aqueous solution, thermodynamic from solid
Text: FIG. 4 provides a chart of the pH - solubility profile of 4-[2-dimethylamino-1-(4-phenyl)-ethyl-tetrahydro-pyran-4-ol.

Chain of human serotonin transporter (P31645 whole entry): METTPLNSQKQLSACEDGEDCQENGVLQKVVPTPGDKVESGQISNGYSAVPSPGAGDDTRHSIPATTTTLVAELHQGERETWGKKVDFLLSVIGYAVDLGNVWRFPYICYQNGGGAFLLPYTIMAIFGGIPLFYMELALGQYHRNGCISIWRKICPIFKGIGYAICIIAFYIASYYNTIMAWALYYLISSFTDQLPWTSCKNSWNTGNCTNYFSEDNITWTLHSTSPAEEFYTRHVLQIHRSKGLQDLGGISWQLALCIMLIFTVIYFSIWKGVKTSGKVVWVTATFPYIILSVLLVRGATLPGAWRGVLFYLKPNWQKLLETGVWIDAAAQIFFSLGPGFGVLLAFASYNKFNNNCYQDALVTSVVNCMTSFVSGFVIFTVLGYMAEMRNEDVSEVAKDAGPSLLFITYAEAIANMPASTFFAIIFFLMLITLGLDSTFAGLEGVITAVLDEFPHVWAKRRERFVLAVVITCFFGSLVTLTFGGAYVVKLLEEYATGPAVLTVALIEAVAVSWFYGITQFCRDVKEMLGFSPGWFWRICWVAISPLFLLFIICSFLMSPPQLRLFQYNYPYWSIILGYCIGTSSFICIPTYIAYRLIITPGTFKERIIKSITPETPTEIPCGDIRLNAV

CN(C)CC(c1ccc(O)cc1)C1(O)CCOCC1 (stereo not drawn) [4-[2-Dimethylamino-1-(4-Hydroxy-Phenyl)-ethyl]-Tetrahydro-Pyran-4-ol]
activity in human serotonin transporter assay [1]: active | Solution Stability (time stable) [2]: at least 24 hours | Hygroscopicity (Hygroscopicity profile): Non-hygroscopic | Hygroscopicity, weight gain (Hygroscopicity profile; @ 70% RH): 2% | Hygroscopicity, weight gain (Hygroscopicity profile; @ 90% RH, weight gain was lost when returned to 10% RH or 0% RH): 6% | solubility (pH-solubility profile; pH 4.4, aqueous buffer, Final pH 4.40): 3910 µg/mL (≈ 14.7 mM) | solubility (pH-solubility profile; pH 7.1, aqueous buffer, Final pH 7.10): 3470 µg/mL (≈ 13.1 mM) | solubility (pH-solubility profile; pH 8.8, aqueous buffer, Final pH 8.80): 2960 µg/mL (≈ 11.2 mM) | solubility (pH-solubility profile; simulated gastric fluid, Final pH 1.25): 13600 µg/mL (≈ 51.1 mM)
